# Values of other authors in patent US20070142355A1, “Association of a sinus node If curent inhibitor and an angiotensin converting enzyme inhibitor, and pharmaceutical compositions containing it” (LES LABORATOIRES SERVIER, priority 2005, published 2007).
# Details: ivabradine alone, as generally established in clinical trials
smiles,measurement,value
"COc1cc2c(cc1OC)CC(=O)N(CCCN(C)C[C@H]1Cc3cc(OC)c(OC)cc31)CC2 [ivabradine, 3-{3-[{[(7S)-3,4-dimethoxy-bicyclo[4.2.0]octa-1,3,5-trien-7-yl]methyl}(methyl)amino]propyl}-7,8-dimethoxy-1,3,4,5-tetrahydro-2H-3-benzazepin-2-one]",slight increase in systolic arterial pressure,~1 mmHg
